Measurements reported in ChEMBL document CHEMBL2169750, “Imidazo-benzothiazoles a potent microRNA modulator involved in cell proliferation” (Bioorg Med Chem Lett, 2012).
Calls of active or inactive are those of the source. No cut-off for these calls is given here.

Tests used:
[1] = tested on: COLO 205; test: Cytotoxicity against human COLO205 cells assessed as reduction in cell viability at 0.5 to 4 uM after 48 hrs by MTT assay; type: functional, cell-based
[2] = tested on: Drosophila melanogaster; test: Toxicity in Drosophila melanogaster third instar larvae assessed as change in fecundity at 40 uM administered through feeding measured after 5 days; type: organism-based; settings: in vivo, po, 120 h
[3] = tested on: Drosophila melanogaster; test: Toxicity in Drosophila melanogaster third instar larvae assessed as change in larvae development at 40 uM administered through feeding measured after 5 days; type: organism-based; settings: in vivo, po, 120 h
[4] = tested on: Drosophila melanogaster; test: Induction of apoptosis in Drosophila melanogaster third instar larval wing imaginal disc assessed as Dronc activation at 10 to 100 uM administered through feeding measured after 5 days by semi quantitative RT-PCR analysis relative to control; type: functional
[5] = tested on: Drosophila melanogaster; test: Downregulation of bantam microRNA expression in Drosophila melanogaster third instar larval wing imaginal disc assessed as increase in EGFP expression at 40 uM administered through feeding measured after 5 days by confocal microscopy relative to control; type: functional
[6] = tested on: Drosophila melanogaster; test: Upregulation of Grim expression in Drosophila melanogaster third instar larval wing imaginal disc at 10 to 100 uM administered through feeding measured after 5 days by semi quantitative RT-PCR analysis relative to control; type: functional
[7] = tested on: COLO 205; test: Cytotoxicity against human COLO205 cells assessed as Dicer-1 expression at 4 uM after 24 hrs by Western blot analysis; type: functional, cell-based
[8] = tested on: Drosophila melanogaster; test: Upregulation of Reaper expression in Drosophila melanogaster third instar larval wing imaginal disc at 10 to 100 uM administered through feeding measured after 5 days by semi quantitative RT-PCR analysis relative to control; type: functional
[9] = tested on: Drosophila melanogaster; test: Downregulation of HDAC-1 mRNA expression in Drosophila melanogaster third instar larval wing imaginal disc at 10 to 100 uM administered through feeding measured after 5 days by semi quantitative RT-PCR analysis; type: functional, organism-based
[10] = tested on: COLO 205; test: Induction of apoptosis in human COLO205 cells assessed as cellular blebbing at 4 uM after 24 hrs by Hoechst 33342-staining based confocal microscopy; type: functional, cell-based
[11] = tested on: COLO 205; test: Induction of apoptosis in human COLO205 cells assessed as chromatin condensation at 4 uM after 24 hrs by Hoechst 33342-staining based confocal microscopy; type: functional, cell-based
[12] = tested on: Drosophila melanogaster; test: Downregulation of HDAC4 mRNA expression in Drosophila melanogaster third instar larval wing imaginal disc at 10 to 100 uM administered through feeding measured after 5 days by semi quantitative RT-PCR analysis; type: functional, organism-based
[13] = tested on: COLO 205; test: Downregulation of HDAC-6 protein expression in human COLO205 cells at 4 uM after 24 hrs by Western blot analysis; type: functional, cell-based
[14] = tested on: Drosophila melanogaster; test: Downregulation of bantam microRNA expression in Drosophila melanogaster third instar larval wing imaginal disc assessed as increase in EGFP expression at 40 uM administered through feeding measured after 5 days by confocal microscopy; type: functional, organism-based
[15] = tested on: Drosophila melanogaster; test: Downregulation of HDAC3 mRNA expression in Drosophila melanogaster third instar larval wing imaginal disc at 10 to 100 uM administered through feeding measured after 5 days by semi quantitative RT-PCR analysis; type: functional, organism-based
[16] = tested on: COLO 205; test: Induction of apoptosis in human COLO205 cells assessed as increase in caspase 3 expression at 4 uM after 24 hrs by fluorimetric assay relative to control; type: functional
[17] = tested on: Drosophila melanogaster; test: Downregulation of DIAP1 expression in Drosophila melanogaster third instar larval wing imaginal disc at 10 to 100 uM administered through feeding measured after 5 days by semi quantitative RT-PCR analysis; type: functional
[18] = tested on: COLO 205; test: Induction of apoptosis in human COLO205 cells assessed as caspase 9 expression at 4 uM after 24 hrs by fluorimetric assay in presence of Z-LEHD-FMK; type: functional, cell-based
[19] = tested on: Drosophila melanogaster; test: Upregulation of Hid expression in Drosophila melanogaster third instar larval wing imaginal disc at 10 to 100 uM administered through feeding measured after 5 days by semi quantitative RT-PCR analysis relative to control; type: functional
[20] = tested on: COLO 205; test: Cytotoxicity against human COLO205 cells assessed as increase in miR-145 level by RT-PCR analysis; type: functional, cell-based
[21] = tested on: COLO 205; test: Cytotoxicity against human COLO205 cells assessed as miR-450 expression by RT-PCR analysis; type: functional, cell-based
[22] = tested on: Drosophila melanogaster; test: Downregulation of HDAC6 mRNA expression in Drosophila melanogaster third instar larval wing imaginal disc at 10 to 100 uM administered through feeding measured after 5 days by semi quantitative RT-PCR analysis; type: functional, organism-based
[23] = tested on: COLO 205; test: Cytotoxicity against human COLO205 cells assessed as decrease in AGO-1 expression at 4 uM after 24 hrs by Western blot analysis; type: functional, cell-based
[24] = tested on: COLO 205; test: Induction of apoptosis in human COLO205 cells assessed as cellular shrinkage at 4 uM after 24 hrs by Hoechst 33342-staining based confocal microscopy; type: functional, cell-based
[25] = tested on: Drosophila melanogaster; test: Effect on Ago-1 expression in Drosophila melanogaster third instar larval wing imaginal disc at 10 to 100 uM administered through feeding measured after 5 days by semi quantitative RT-PCR analysis; type: functional, organism-based
[26] = tested on: Drosophila melanogaster; test: Downregulation of Drosha expression in Drosophila melanogaster third instar larval wing imaginal disc at 10 to 100 uM administered through feeding measured after 5 days by semi quantitative RT-PCR analysis relative to control; type: functional
[27] = tested on: COLO 205; test: Induction of apoptosis in human COLO205 cells assessed as caspase 3 expression at 4 uM after 24 hrs by fluorimetric assay in presence of Z-DEVD-FMK; type: functional, cell-based
[28] = tested on: Drosophila melanogaster; test: Induction of apoptosis in Drosophila melanogaster third instar larval wing imaginal disc assessed as Dcp-1 activation at 10 to 100 uM administered through feeding measured after 5 days by semi quantitative RT-PCR analysis relative to control; type: functional
[29] = tested on: COLO 205; test: Cell cycle arrest in human COLO205 cells assessed as accumulation at G1 phase at 4 uM after 24 hrs by propidium iodide staining-based flow cytometry (reference value: 71%); type: functional
[30] = tested on: COLO 205; test: Cell cycle arrest in human COLO205 cells assessed as accumulation at G2/M phase at 4 uM after 24 hrs by propidium iodide staining-based flow cytometry (reference value: 22%); type: functional
[31] = tested on: COLO 205; test: Induction of apoptosis in human COLO205 cells assessed as increase in caspase 9 expression at 4 uM after 24 hrs by fluorimetric assay relative to control; type: functional
[32] = tested on: Drosophila melanogaster; test: Downregulation of miR-13a expression in Drosophila melanogaster third instar larval wing imaginal disc assessed as increase in EGFP expression at 40 uM administered through feeding measured after 5 days by confocal microscopy; type: functional, organism-based
[33] = tested on: COLO 205; test: Induction of apoptosis in human COLO205 cells assessed as DNA fragmentation at 4 uM by tunel assay; type: functional, cell-based
[34] = tested on: COLO 205; test: Cytotoxicity against human COLO205 cells assessed as decrease in miR-542-5p level by RT-PCR analysis; type: functional, cell-based
[35] = tested on: Drosophila melanogaster; test: Downregulation of miR-13a expression in Drosophila melanogaster third instar larval wing imaginal disc assessed as increase in EGFP expression at 40 uM administered through feeding measured after 5 days by confocal microscopy relative to control; type: functional
[36] = tested on: COLO 205; test: Downregulation of HDAC-3 protein expression in human COLO205 cells at 4 uM after 24 hrs by Western blot analysis; type: functional, cell-based
[37] = tested on: Drosophila melanogaster; test: Downregulation of miR-14 expression in Drosophila melanogaster third instar larval wing imaginal disc assessed as increase in EGFP expression at 40 uM administered through feeding measured after 5 days by confocal microscopy; type: functional, organism-based
[38] = tested on: Drosophila melanogaster; test: Downregulation of Dicer-1 expression in Drosophila melanogaster third instar larval wing imaginal disc at 10 to 100 uM administered through feeding measured after 5 days by semi quantitative RT-PCR analysis relative to control; type: functional
[39] = tested on: Drosophila melanogaster; test: Downregulation of Pasha expression in Drosophila melanogaster third instar larval wing imaginal disc at 10 to 100 uM administered through feeding measured after 5 days by semi quantitative RT-PCR analysis relative to control; type: functional
[40] = tested on: COLO 205; test: Cytotoxicity against human COLO205 cells assessed as decrease in AGO-2 expression at 4 uM after 24 hrs by Western blot analysis; type: functional, cell-based
[41] = tested on: COLO 205; test: Cell cycle arrest in human COLO205 cells assessed as accumulation at S phase at 4 uM after 24 hrs by propidium iodide staining-based flow cytometry (reference value: 7%); type: functional
[42] = tested on: Drosophila melanogaster; test: Downregulation of Sir2 mRNA expression in Drosophila melanogaster third instar larval wing imaginal disc at 10 to 100 uM administered through feeding measured after 5 days by semi quantitative RT-PCR analysis; type: functional, organism-based

SMILES: CCOc1ccc2c(c1)sc1nc(-c3ccccc3)c(CN3CCCC3)n12
- Activity [1]: Active
- Activity [2]: Non-toxic
- Activity [3]: Non-toxic

SMILES: Fc1ccc2c(c1)sc1nc(-c3ccccc3)c(CN3CCCC3)n12
- Activity [1]: Active
- Activity [2]: Non-toxic
- Activity [3]: Non-toxic

SMILES: c1ccc(-c2nc3sc4ccccc4n3c2CN2CCCC2)cc1
- Activity [1]: Active
- Activity [2]: Non-toxic
- Activity [3]: Non-toxic

SMILES: Clc1ccc(-c2nc3sc4ccccc4n3c2CN2CCCC2)cc1
- Activity [1]: Active
- Activity [2]: Non-toxic
- Activity [3]: Non-toxic

SMILES: Clc1ccc(-c2nc3sc4ccccc4n3c2CN2CCN(c3ccccn3)CC2)cc1
- Activity [1]: Active
- fold change (FC) [4]: 3
- fold change (FC) [5]: 5
- fold change (FC) [6]: 3
- Activity [7]: inactive
- fold change (FC) [8]: 2.5
- Activity [2]: Non-toxic
- Activity [9]: inactive
- Activity [10]: Active
- Activity [11]: Active
- Activity [12]: Active
- Activity [13]: Active
- Activity [14]: Active
- Activity [15]: Active
- fold change (FC) [16]: 3
- fold change (FC) [17]: 5
- Activity [18]: inactive
- fold change (FC) [19]: 4
- Activity [20]: Active
- Activity [3]: Non-toxic
- Activity [21]: inactive
- Activity [22]: Active
- Activity [23]: Active
- Activity [24]: Active
- Activity [25]: inactive
- fold change (FC) [26]: 4
- Activity [27]: inactive
- fold change (FC) [28]: 3
- Activity [29]: 80%
- Activity [30]: 15%
- fold change (FC) [31]: 2.5
- Activity [32]: Active
- Activity [33]: Active
- Activity [34]: Active
- fold change (FC) [35]: 3
- Activity [36]: Active
- Activity [37]: inactive
- fold change (FC) [38]: 3
- fold change (FC) [39]: 2
- Activity [40]: Active
- Activity [41]: 5%
- Activity [42]: Active

SMILES: CCN(CC)CCOc1cccc(-c2cn3c(n2)sc2ccccc23)c1.Cl.Cl
- Activity [13]: Active
- Activity [29]: 22%
- Activity [30]: 73%
- Activity [36]: Active
- Activity [41]: 5%

SMILES: Cc1ccc2c(c1)sc1nc(-c3ccccc3)c(CN3CCCC3)n12
- Activity [1]: Active
- Activity [2]: Non-toxic
- Activity [3]: Non-toxic

SMILES: CCOc1ccc2c(c1)sc1nc(-c3ccc(Cl)cc3)c(CN3CCN(c4ccccn4)CC3)n12
- Activity [1]: Active
- Activity [2]: Non-toxic
- Activity [14]: Active
- Activity [3]: Non-toxic
- Activity [32]: Active
- Activity [37]: inactive
